Test [1] relates to PBMC (peripheral blood mononuclear cells). As to the kind of experiment: two-way mixed lymphocyte reaction (MLR), immune suppression. The test is classed as cell-based. The conditions noted are these: Homo sapiens, 144 h, allogeneic stimulation of PBMC, 6 days. The text has this:
Various in vitro assays can be used to measure effects of the inventive compounds to module immune activity and have antitumor activity using a variety of cellular types. For example, a mixed lymphocyte reaction (MLR) provides a valuable screening tool to determine biological activity of each inventive compound. In the MLR, PBMCs (peripheral blood mononuclear cells) are obtained by drawing whole blood from healthy volunteers in a heparinized container and diluted with an equal volume of hanks balanced salt solution (HBSS). This mixture is layered on a sucrose density gradient, such as a Ficoll-Hypaque® gradient (specific gravity 1.08), and centrifuged at 1000× g for 25 minutes at room temperature or cooler. PBMC are obtained from a band at a plasma-Ficoll interface, separated and washed at least twice in a saline solution, such as HBSS. Contaminating red cells are lysed, such as by ACK lysis for 10 rain at 37° C., and the PBMCs are washed twice in HBSS. The pellet of purified PBMCs is resuspended in complete medium, such as RPMI 1640 plus 20% human inactivated serum. Proliferative response of PBMC to allogeneic stimulation is determined in a two-way MLR performed in a 96-well microtiter plate. […] At the conclusion of the incubation tritiated thymidine is added (for example, 1 μCi/well of 40 to 60 Ci/mmole) and proliferation determined by liquid scintillation counting. […]

The subject of a further test is mast cells. As to the kind of experiment: mast cell degranulation, serotonin release assay. The test is classed as cell-based. The text has this:
A serotonin release assay is utilized to study the utility of the inventive compounds for treatment of asthma and allergy. This assay measures mast cell degranulation, which is an early phase reaction to allergen challenge. Mast cells grown in tissue culture are first loaded with ^3 H serotonin, which is incorporated into the granules in the cells. The mast cells are sensitized with antigen specific monoclonal IgE, and then triggered to degranulate with the specific antigen (dinitrophenol bound to BSA (DNP)). When the cells degranulate, ^3 H Serotonin is released into the medium, and can be measured directly. The ability of the inventive compounds to inhibit the degranulation response is determined by the decrease in ^3 H Serotonin released in the presence of drug and is represented as % INHIBITION. The IC50 of any given compound is determined by the ability of that compound to inhibit degranulation by 50%.
Specifically, the serotonin release assay seeds 2×10^5 cells in 0.5 ml medium in duplicate for spontaneous release, IgE+DNP, IgE+DNP+EtOH (vehicle control), and inventive compounds. One μCi [^3H ]-Serotonin/ml (i.e., 0.5 μCi/well) (NEN Research Products, cat. #NET-398 Hydroxytryptamine Binoxalate, 5-[1,2-^3 H(N)]-(Serotonin Binoxalate, [1,2-^3 H(N)]-)) and 1 μl/ml IgE is added. The cells are incubated for 18 hours at 37° C. in 5% CO2, washed twice with 0.5 ml Isotonic Buffer (25 mM disodium PIPES pH 7.1,100 mM NaCl, 5 mM KCl, 5 mM glucose, 0.4 mM MgCl2, 1 mM CaCl2, 0.1% BSA), and sterile filtered. 250 μl Isotonic Buffer is added per well and the plates are equilibrated in an incubator for about 10 min. Drug is added and cells are activated with 40 ng/ml DNP-BSA (1 mg/ml Diluted 1:200 in Isotonic Buffer) for 45 minutes using 2 μl/250 μl. Spontaneous release is determined in incubated cells with 250 μl Isotonic Buffer for 45 minutes and the reaction is stopped by removing supernatant and centrifuging at ~4000 rpm in microfuge for 15 seconds to remove any detached cells. Released radiolableled serotonin is counted. To determine amount of ^3 H-serotonin incorporated into the cells, (a) remove Isotonic Buffer and lyse cells by adding 250 μl 1% Triton-X100 in PBS, (b) add to 5 ml scintillation fluid, (c) wash 2× with Triton/PBS, and (d) add washes to scintillation tube. Percent serotonin release is calculated by dividing the amount of released serotonin by the sum of incorporated plus released serotonin and correcting for spontaneous released serotonin. Compound inhibition is calculated by dividing the percent serotonin release in the presence of a compound by the percent serotonin release in the absence of the compound.
This assay is described above and provides an in vitro model for an allergy and asthma therapeutic compound.

The next test relates to murine thymocytes. As to the kind of experiment: inhibition of murine thymocyte proliferation stimulated by ConA and IL-1α. The test is classed as cell-based, murine (Balb/C mice). The conditions noted are these: FIG. 4, 4 days. As for the experimental part:
The drugs (inventive compounds) were added to the cells at the doses indicated two hours prior to activation with ConA and IL-1α. […] Background counts were less than 200 cpm. This in vitro assay is a model for immune suppression and treatment or prevention of autoimmune diseases.
A third assay measures an ability of an inventive compound to inhibit IL-2-induced proliferation of murine thymocytes. Thymus glands are obtained from 4-6 week old mice and plated as a single cell suspension into flat bottomed wells in RPMI 1640 medium supplemented with 10% fetal calf serum. The inventive compounds are added to appropriate wells and the cells are incubated for 1-2 hrs. Concanavilin A (ConA, 0.25 μg/ml) and IL-1 (20 ng/ml) are added and the plates are incubated for 4 days. Cell proliferation is determined as above. There are also variations for this assay that follow the same basic stimulation and measure inhibition of proliferation format. […]
This example illustrates the effect of CT1514, CT1525, CT1527, CT1529, CT1577, CT1583, CT1589, CT1595, CT2519, CT1205, CT1801 and CT1908 on inhibition of murine thymocyte proliferation stimulated by Concanavalin A (ConA) and interleukin-2 (IL-2) (FIG. 4). […] The cells were harvested and incorporated tritiated thymidine was determined in a liquid scintillation counter. […]

The text below walks through data of patent publication US5670506A, “Halogen, isothiocyanate or azide substituted xanthines” (Cell Therapeutics, Inc., priority 1993, dated 1997).

The term IC50 denotes the concentration that gives 50% inhibition. As usually defined, the inhibition is how much of the control response was suppressed.

Take `Cn1cnc2c1c(=O)n(CCCCC(=O)CCl)c(=O)n2C` [CT1595, 1-(6-chloro-5-oxohexyl)-3,7-dimethylxanthine]: the IC50 in test [1] is less than 10 µM. The same molecule yielded an inhibition at 50 µM with mast cells (50 μM) of 44%. Besides, in the test with mast cells (100 μM), the inhibition at 100 µM was determined as 88%. For the same molecule, the “inhibition of thymocyte proliferation” value in the test with murine thymocytes is reported as “most potent drugs”.
